Measured values taken from patent US7045513B1, “DHEA composition and method” (priority 1999, dated 2006).

Assays:
[1] = 14-day stress study of DHEA forms I and II, monitored by XRPD; type: physicochemical; settings: for Stability (summary): ambient conditions and heat at non-saturating humidity; for Stability to solid form conversion: ambient temperature and 50° C., two weeks, RH as high as 84%
Experimental: Little weight gain (<0.8%) is observed in these samples. (Weight losses observed at 50° C. could be due to loss of residual solvent, sublimation of sample, and/or thermal degradation.)
X-Ray Powder Diffraction (XRPD). XRPD analyses were carried out on a Siemens D-500 X-ray Powder Diffractometer-Kristaloflex or a Shimadzu XRD-6000 X-ray powder diffractometer using Cu Kα radiation (1.5406 Å).
The Siemens instrument was equipped with an IBM-compatible interface and utilized DIFFRAC AT software (SOCABIM, 1994). Slits I and II were set at 1° and the radiation was electronically filtered by a Kevex Psi Peltier cooled silicon detector with slits III at 1° and IV at 0.15°. A continuous theta-two theta scan at 6°/min (0.4 sec/0.04° step) from 4 to 40°2θ was used. A silicon standard was analyzed each day to check the instrument alignment. Each sample was prepared by pressing a small amount of the powder onto a zero-background quartz-in-aluminum sample holder.
The Shimadzu instrument was equipped with a fine-focus X-ray tube. The tube power was set at 40 kV, 40 mA. The divergence and scattering slits were set at 1° and the receiving slit was set at 0.15 mm. Diffracted radiation was detected by an NaI scintillation detector. A theta-two theta continuous scan at 3°/min (0.4 sec/0.02° step) from 4 to 40°2θ was used. A silicon standard was analyzed each day to check the instrument alignment, and an alumina standard was analyzed each day to check the X-ray tube output. Each sample was prepared for analysis by pressing it with a spatula onto a glass or quartz sample holder.

[2] = Single dose pharmacokinetic study of orally administered DHEA formulations; type: in vivo, human; settings: conclusion drawn from the single dose study
Experimental: Example 2 describes a study in which 34 healthy postmenopausal women were administered orally one of three formulations of DHEA, each prepared from commercially available DHEA, in capsular form. The formulations were administered in single dosages of four opaque, size 2 capsules, each capsules containing 50 mg DHEA, 152 mg lactose (169 mg for formulation 3), 108 mg corn starch, and 3 mg magnesium stearate.
Blood samples were collected prior to and at various times after administration, and the levels of DHEA and DHEA-S were measured by immunoassay. […]
AUC (area under curve) is an indicator of extent of absorption; Cmax and Tmax are indicators of rate of absorption. Serum DHEA concentrations for all samples were above the assay limit of quantification. […]
DHEA levels were determined by radioimmunoassay (RIA) at Endocrine Sciences Inc., after non-polar solvent extraction. […] Internal assay controls were monitored via control charts. […]. […]
Adjusted serum levels were calculated by subtracting baseline (average of −0.5 hr and 0 hr serum levels). […] For DHEA and DHEA-S, the peak serum concentration (Cmax) and time to peak concentration (Tmax) were assessed from the concentration-time data. […]

[3] = Solid form stability of form I after 1, 2, 3 and 6 months, by 13C-SSNMR; type: physicochemical
Experimental: Solid State NMR Method (SSNMR). SSNMR spectra were obtained on a General Electric Omega PSG, 100 MHz spectrometer using about 50 mg of sample in a 5-mm diameter zirconia rotor. High-power proton decoupling and cross-polarization with magic-angle spinning at approximately 5 kHz were used. The magic angle was adjusted using the Br signal of KBr by detecting the side bands as described by Frye and Maciel, 1982. The chemical shifts were referenced externally to the CH resonance of adamantane at 29.50 ppm. Curve fitting of selected peaks for integration was performed as described by MacDonald (1980). The following peaks were used to measure forms I, II and VI: sum of peaks at 118.8 and 120.3 ppm (form I), peak at 119.8 ppm (form II), and peak at 118.5 ppm (form VI).

[4] = 25° C. (ambient temperature), 95% RH

Compound	Final Form (by XRPD), 14 days [1, 4]	Wt change, % (14 days) ([1]; 25° C., 58% RH, 14 days) [%]	Wt change, % (14 days) ([1]; 25° C., 75% RH, 14 days)	Wt change, % (14 days) ([1]; 25° C., 84% RH, 14 days)	Wt change, % (14 days) ([1]; 25° C., 95% RH, 14 days)	Wt change, % (14 days) ([1]; 50° C., 58% RH, 14 days) [%]	Final Form (by XRPD), 14 days ([1]; 50° C., 75% RH)	Wt change, % (14 days) ([1]; 50° C., 75% RH, 14 days) [%]	Final Form (by XRPD), 14 days ([1]; 50° C., 84% RH)	Wt change, % (14 days) ([1]; 50° C., 84% RH, 14 days) [%]	Final Form (by XRPD), 14 days ([1]; 50° C., 95% RH)	Wt change, % (14 days) ([1]; 50° C., 95% RH, 14 days)	Solid form conversion ([1]; 50°, RH of 75% or greater, 14 days)	Stability (summary) [1]	Stability to solid form conversion [1]	Bioavailability when administered orally [2]	Overall stability, form I compared with form II ([1]; summary of the stability studies)	Final Form (by 13C-SSNMR), 1, 2, 3, and 6 months ([3]; 25° C., 58% RH)	Final Form (by 13C-SSNMR), 1, 2, 3, and 6 months ([3]; 40° C. (footnote b), 75% RH)
C[C@]12CC[C@H](O)CC1=CC[C@@H]1[C@@H]2CC[C@]2(C)C(=O)CC[C@@H]12 [Form II, dehydroepiandrosterone]	converted to S2	0	−0.3%	+0.2%	+5%	−1	II + S1	−2	II + S1	−0.3	II + S1	+1%	partially converted to S1	stable	stable to solid form conversion	high bioavailability			
C[C@]12CC[C@H](O)CC1=CC[C@@H]1[C@@H]2CC[C@]2(C)C(=O)CC[C@@H]12 [Form I, dehydroepiandrosterone]	stable	−0.6	+0.3%	+0.1%	+0.2%	−1		−3		−2	converted to S2	+1%		stable	stable to solid form conversion	high bioavailability	greater overall stability	remained stable to solid form conversion	remained stable to solid form conversion
